Laboratory results: PMC6069109, “An Aspartate-Specific Solute-Binding Protein Regulates Protein Kinase G Activity To Control Glutamate Metabolism in Mycobacteria” (mBio, 2018)
Read-outs that look alike come from different tables or passages of the source.

Assays:
Assay type in all cases: binding
[1] = molecular target: T1, GlnH (Mycobacterium tuberculosis, UniProt P96257); assay: crystal structure, thermal melt shift
[2] = molecular target: T1, GlnH; assay: crystal structure, ITC, thermal melt shift
[3] = molecular target: T2, C. glutamicum GlnH (GlnHcg) (Corynebacterium glutamicum, UniProt Q8NM30); assay: intrinsic tryptophan fluorescence, thermal melt shift
T2 construct: gene Cgl2750; soluble domain, N-terminal His6 tag
T2 sequence (Q8NM30 entry or part of it): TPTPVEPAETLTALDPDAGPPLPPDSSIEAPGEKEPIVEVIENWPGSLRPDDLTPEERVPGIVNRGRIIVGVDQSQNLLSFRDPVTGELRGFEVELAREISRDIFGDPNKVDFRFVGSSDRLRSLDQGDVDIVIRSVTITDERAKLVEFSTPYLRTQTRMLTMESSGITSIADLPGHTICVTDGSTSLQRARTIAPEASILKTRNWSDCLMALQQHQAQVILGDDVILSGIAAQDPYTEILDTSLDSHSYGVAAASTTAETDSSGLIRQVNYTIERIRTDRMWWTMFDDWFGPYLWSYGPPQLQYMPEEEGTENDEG

T1 sequence (P96257 27-328 limits assumed): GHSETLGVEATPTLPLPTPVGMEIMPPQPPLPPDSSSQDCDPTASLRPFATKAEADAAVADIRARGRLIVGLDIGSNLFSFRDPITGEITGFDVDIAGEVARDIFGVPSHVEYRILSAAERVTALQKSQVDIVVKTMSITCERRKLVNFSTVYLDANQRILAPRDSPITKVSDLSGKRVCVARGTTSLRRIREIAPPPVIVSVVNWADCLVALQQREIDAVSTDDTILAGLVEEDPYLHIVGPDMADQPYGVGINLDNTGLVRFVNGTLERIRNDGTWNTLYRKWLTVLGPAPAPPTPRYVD

SMILES: NC(=O)C[C@H](N)C(=O)O [asparagine]
- crystal structure, thermal melt shift [1]: 6H1U (GlnH with Asp), 6H20 (GlnH with Asn), and 6H2T (GlnH with Glu)

SMILES: N[C@@H](CCC(=O)O)C(=O)O [glutamate]
- Kd [2]: 15.2 ± 5.7 µM
- Kd [3]: 2060 µM

SMILES: N[C@@H](CC(=O)O)C(=O)O [aspartate]
- Kd ([2]; read-out: Kd (μM)^a): 4.8 ± 0.6 µM
- Kd ([3]; read-out: Kd (μM)^a): 550 ± 90 µM
